# How the values were obtained:
# [1] = system: platelets and neutrophils; assay: Pilot study: thrombocytopenia and neutropenia in pancreatic cancer patients receiving chemotherapy; assay type: in vivo, human; details: 16 patients
# Experimental: PLAG is administered to sixteen pancreatic cancer patients after chemotherapy. The subjects of this study are unoperable pancreatic cancer patients with ECOG (Eastern Cooperative Oncology Group) performance status of “0” or “1”, i.e. patients in good physical condition without much pain, able to enjoy almost normal lifestyle and thus, eligible for anticancer treatment for at least 2 months. The pancreatic cancer patients are “locally advanced” patients having tumor metastasis to the major vessels around pancreas or “Distant metastasis” patients with distant metastasis to liver, lung, bone, etc. ECOG performance status “0” refers to a patient who is asymptomatic, fully active, able to carry on all predisease activities without restriction with no pain and no problem for normal lifestyle, while “1” refers to a patient who is symptomatic but completely ambulatory with mile pain and a little problem for normal life. Anticancer (Gemcitabine and Erlotinib combo treatment) Regimen is as follows: 1,000 mg of Gemcitabine is injected once a week for three weeks (Day 1, Day 8, Day 15), and is not injected in the next one week (Day 22). Therefore, 1 cycle of anticancer treatment requires 1 month. 100 mg of Erlotinib (Tarceva) is administered once per day everyday orally. 1,000 mg of PLAG is also administered once per day orally, starting from 3 days before anticancer treatment until the last chemotherapy treatment. The PLAG treatment group and control group both completed two cycles of anticancer treatment. There is no difference among the control and PALG treatment groups in the amount or schedule of anticancer treatment.
# [2] = system: white blood cells and neutrophils; assay: PLAG in combination with G-CSF in cyclophosphamide-treated mouse model; assay type: in vivo, mice; details: addition of PLAG to G-CSF; levels vs untreated mice
# Source text: Mice receive cyclophosphamide (100 mpk, i.p.) for a period of ten days, with or without G-CSF (0.25 mpk, i.p.) or G-CSF (0.25 mpk, i.p.) plus PLAG (25 mpk, p.o.): […]
# STAT6 = molecular target: T1, STAT6 (Homo sapiens, UniProt P42226); assay: Dephosphorylation of STAT6 in PLAG treated cells, western blot; assay type: cell-based; set-up: endogenous in cells; host or cells: U937, A549, Jurkat; details: U937, Jurkat and A549 cells; PLAG 0.01 to 10 μg/ml; 15 min after 10 ng/ml IL-4
# T1 sequence (P42226 1-847): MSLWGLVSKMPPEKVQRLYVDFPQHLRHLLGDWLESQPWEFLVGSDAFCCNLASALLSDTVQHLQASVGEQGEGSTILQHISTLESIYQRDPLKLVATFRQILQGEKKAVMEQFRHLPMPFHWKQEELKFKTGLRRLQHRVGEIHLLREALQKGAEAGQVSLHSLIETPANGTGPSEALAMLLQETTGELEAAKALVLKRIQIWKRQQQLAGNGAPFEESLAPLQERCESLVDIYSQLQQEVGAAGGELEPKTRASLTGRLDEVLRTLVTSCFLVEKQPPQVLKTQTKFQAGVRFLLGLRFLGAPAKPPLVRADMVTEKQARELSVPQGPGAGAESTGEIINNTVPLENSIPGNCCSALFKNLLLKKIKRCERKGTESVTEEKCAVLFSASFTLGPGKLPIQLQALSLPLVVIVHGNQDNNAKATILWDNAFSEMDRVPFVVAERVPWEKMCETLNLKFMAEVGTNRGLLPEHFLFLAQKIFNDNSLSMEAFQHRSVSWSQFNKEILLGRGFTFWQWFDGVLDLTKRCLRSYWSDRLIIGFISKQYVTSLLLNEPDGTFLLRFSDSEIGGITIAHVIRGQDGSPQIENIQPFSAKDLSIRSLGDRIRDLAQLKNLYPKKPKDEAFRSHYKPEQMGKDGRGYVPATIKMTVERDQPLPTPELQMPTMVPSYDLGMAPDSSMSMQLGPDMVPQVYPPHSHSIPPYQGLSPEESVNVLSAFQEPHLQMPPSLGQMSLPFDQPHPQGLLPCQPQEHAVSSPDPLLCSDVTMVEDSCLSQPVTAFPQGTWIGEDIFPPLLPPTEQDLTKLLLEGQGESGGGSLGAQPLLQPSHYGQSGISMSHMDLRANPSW
# Experimental: Dephosphorylation of STAT6 is examined using anti-phosphorylated STAT6 in U937, A549, and Jurkat cell lysates treated with PLAG concentration from 0.01 to 10 μg/ml. Phosphorylation of STAT6 is induced by treatment with 10 ng/ml of IL-4. Dephosphorylation of STAT1 is examined in the U937 cell lysate treated with PLAG (0.01 to 10 μg/ml). Phosphorylation of STAT1 is induced by 10 ng of IFN-γ treatment. Dephosphorylation of STAT1 and STAT6 is examined at 15 min after stimulation with IFN-γ and IL-4 respectively, in the PLAG pretreated cells. […] The transcriptional activity of STAT6 is decreased by the dephosphorylation of STAT6. […] No effect of PLAG on STAT1 phosphorylation is observed.
# C3 = C3 in culture supernatant of HepG2 cells, ELISA; assay type: cell-based, human; details: PLAG 1 to 100 μg/ml or S6I 10 and 100 μg/ml, IL-4 and TNF-α 1 hr, 18 hr at 37° C.
# Experimental: The incubated HepG2 cell lines are treated with PLAG (1˜100 μg/ml), followed by IL-4 and TNF-α, reacted for 1 hour, incubated for 18 hours at 37° C. and the supernatant isolated. Quantitation of the amount of C3 in the cellular culture medium (supernatant) from HepG2 cells is performed by ELISA using a commercially available monoclonal antibody (mAb, R&D Systems) and the manufacture's protocol; the results are presented in FIG. 3. C3 is expressed spontaneously under in vitro culture condition using 10% FCS added to HepG2 cells incubated for 12 hr. The cells are treated with different doses of PLAG from 1 to 100 μg/ml (Panel A, Panel B) or 10 and 100 μg/ml of S6I (Panel C), reacted with IL-4 and TNF-α for 1 hr and then incubated for 18 hr at 37° C. Cellular viability is confirmed using the WST-1 assay (Panel A).
# [3] = Gemcitabine and Erlotinib, PLAG 1,000 mg once per day orally, two cycles
compound,measurement,setting,value
"CCCCC/C=C\C/C=C\CCCCCCCC(=O)OC(COC(C)=O)COC(=O)CCCCCCCCCCCCCCC (racemic) [PLAG, 1-palmitoyl-2-linoleoyl-3-acetylglycerol]","patients whose platelet number dropped to less than 25,000/μl",[1]; [3],no patient
same,"patients with platelet number decrease to less than 50,000/μl",[1]; [3],no patient
same,patients with >70% decrease in platelet count,[1]; PLAG treatment group,none
same,patients with neutrophil decrease to less than 500/μl,[1]; PLAG treatment group,none
same,patients with neutrophil number decrease to less than 75%,[1]; PLAG treatment group,none and not one patient
same,protection from cyclophosphamide-induced neutropenia,[2],substantially complete protection
same,IL-4 treatment induced STAT6 phosphorylation,STAT6,inhibited with increasing PLAG concentrations
same,"expression of C3 (amount in supernatant, ELISA)",C3,decreased dose-dependently

# From patent publication US11491132B2, “Methods for treating thrombocytopenia” (Enzychem Lifesciences Corporation, priority 2014, dated 2022)
